Source: patent publication US6737383B1, “Herbicidal oxadiazolidines” (priority 1999, dated 2004)

Key:
[1] = system: wheat; experiment: Test B pre/postemergence wheat; assay type: in vivo, Triticum aestivum
Procedure, shortened: (§1)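 Response is a visual 0-to-10 score relative to untreated plants, where 0 means no effect and 10 means complete control, taken twelve to sixteen days after application. Treatments went onto soil at planting and onto foliage of 1- to 4-leaf plants, using a surfactant-containing non-phytotoxic solvent.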

[2] = system: blackgrass; experiment: Test B pre/postemergence blackgrass; assay type: in vivo, Alopecurus myosuroides
Procedure, shortened: as §1

[3] = system: giant foxtail; experiment: Test B pre/postemergence giant foxtail; assay type: in vivo, Setaria faberii
Procedure, shortened: as §1

[4] = system: surinam grass; experiment: Test B pre/postemergence surinam grass; assay type: in vivo, Brachiaria decumbens
Procedure, shortened: as §1

[5] = system: soybean; experiment: Test B pre/postemergence soybean; assay type: in vivo, Glycine max
Procedure, shortened: as §1

[6] = system: cocklebur; experiment: Test B pre/postemergence cocklebur; assay type: in vivo, Xanthium strumarium
Procedure, shortened: as §1

[7] = system: purple nutsedge; experiment: Test B pre/postemergence purple nutsedge; assay type: in vivo, Cyperus rotundus
Procedure, shortened: as §1

[8] = system: corn; experiment: Test B pre/postemergence corn; assay type: in vivo, Zea mays; details: for Corn plant response rating: Postemergence; for Plant response rating, Corn: Preemergence
Procedure, shortened: as §1

[9] = system: morningglory; experiment: Test B pre/postemergence morningglory; assay type: in vivo, Ipomoea hederacea; details: for Morningglory plant response rating: Postemergence; for Plant response rating, Morningglory: Preemergence
Procedure, shortened: as §1

[10] = system: pigweed; experiment: Test B pre/postemergence pigweed; assay type: in vivo, Amaranthus retroflexus
Procedure, shortened: as §1

[11] = system: bedstraw; experiment: Test B pre/postemergence bedstraw; assay type: in vivo, Galium aparine; details: for Bedstraw plant response rating: Postemergence; for Plant response rating, Bedstraw: Preemergence
Procedure, shortened: as §1

[12] = system: velvetleaf; experiment: Test B pre/postemergence velvetleaf; assay type: in vivo, Abutilon theophrasti
Procedure, shortened: as §1

[13] = system: rape; experiment: Test B pre/postemergence rape; assay type: in vivo, Brassica napus
Procedure, shortened: as §1

[14] = system: crabgrass; experiment: Test B pre/postemergence crabgrass; assay type: in vivo, Digitaria sanguinalis
Procedure, shortened: as §1

[15] = system: wild oat; experiment: Test B pre/postemergence wild oat; assay type: in vivo, Avena fatua
Procedure, shortened: as §1

[16] = Postemergence, Rate 62 g/ha, scale 0 to 10, 0 is no effect, 10 is complete control
[17] = Postemergence, Rate 250 g/ha, scale 0 to 10, 0 no effect, 10 complete control
[18] = Preemergence, Rate 62 g/ha, scale 0 to 10, 0 is no effect, 10 is complete control
[19] = Preemergence, Rate 125 g/ha, scale 0 to 10 (0 no effect, 10 complete control)
[20] = Preemergence, Rate 250 g/ha, scale of 0 to 10 where 0 is no effect and 10 is complete control
[21] = Preemergence, Rate 500 g/ha, scale 0 (no effect) to 10 (complete control)
[22] = Rate 125 g/ha, Postemergence, scale 0 to 10, 0 no effect, 10 complete control
[23] = Rate 500 g/ha, Postemergence, scale 0 to 10, 0 no effect, 10 complete control
[24] = Rate 62 g/ha, scale 0 to 10, 0 is no effect, 10 is complete control
[25] = Rate 250 g/ha, scale 0 to 10, 0 no effect, 10 complete control
[26] = Rate 125 g/ha, scale 0 to 10 (0 no effect, 10 complete control)
[27] = Rate 250 g/ha, scale of 0 to 10 where 0 is no effect and 10 is complete control
[28] = Rate 125 g/ha, scale 0 to 10, 0 no effect, 10 complete control
[29] = Rate 500 g/ha, scale 0 to 10, 0 no effect, 10 complete control

Cc1cccc(Cl)c1-n1c(=O)on(C(=O)N(c2ccc(F)cc2)C(C)C)c1=O [Compound 53]
Wheat plant response rating [1, 16]: 0
Wheat plant response rating [1, 17]: 0
Plant response rating, Wheat [1, 18]: 0
Plant response rating, Wheat [1, 19]: 0
Plant response rating, Wheat [1, 20]: 0
Wheat plant response rating [1, 21]: 0
Wheat plant response rating [1, 22]: 0
Wheat plant response rating [1, 23]: 0
Blackgrass plant response rating [2, 16]: 0
Blackgrass plant response rating [2, 17]: 0
Plant response rating, Blackgrass [2, 18]: 0
Plant response rating, Blackgrass [2, 19]: 1
Plant response rating, Blackgrass [2, 20]: 1
Blackgrass plant response rating [2, 21]: 4
Blackgrass plant response rating [2, 22]: 0
Blackgrass plant response rating [2, 23]: 0
Giant foxtail plant response rating [3, 16]: 0
Giant foxtail plant response rating [3, 17]: 3
Plant response rating, Giant foxtail [3, 18]: 3
Plant response rating, Giant foxtail [3, 19]: 3
Plant response rating, Giant foxtail [3, 20]: 8
Giant foxtail plant response rating [3, 21]: 10
Giant foxtail plant response rating [3, 22]: 3
Giant foxtail plant response rating [3, 23]: 3
B. signalgrass plant response rating [4, 16]: 0
B. signalgrass plant response rating [4, 17]: 0
Plant response rating, B. signalgrass [4, 18]: 0
Plant response rating, B. signalgrass [4, 19]: 0
Plant response rating, B. signalgrass [4, 20]: 2
B. signalgrass plant response rating [4, 21]: 3
B. signalgrass plant response rating [4, 22]: 0
B. signalgrass plant response rating ([4]; Rate 500 g/ha, Postemergence, scale of 0 to 10 where 0 is no effect and 10 is complete control): 0
Soybean plant response rating [5, 16]: 3
Soybean plant response rating [5, 17]: 3
Plant response rating, Soybean [5, 18]: 0
Plant response rating, Soybean [5, 19]: 0
Plant response rating, Soybean [5, 20]: 0
Soybean plant response rating [5, 21]: 0
Soybean plant response rating [5, 22]: 3
Soybean plant response rating [5, 23]: 3
Cocklebur plant response rating [6, 16]: 0
Cocklebur plant response rating [6, 17]: 4
Plant response rating, Cocklebur [6, 18]: 0
Plant response rating, Cocklebur [6, 20]: 0
Cocklebur plant response rating [6, 21]: — 0 0 0 0
Cocklebur plant response rating [6, 22]: 0
Cocklebur plant response rating [6, 23]: 4
Nutsedge plant response rating [7, 16]: 0
Nutsedge plant response rating [7, 17]: 0
Plant response rating, Nutsedge [7, 18]: 0
Plant response rating, Nutsedge [7, 19]: 0
Plant response rating, Nutsedge [7, 20]: 0
Nutsedge plant response rating [7, 21]: 0
Nutsedge plant response rating [7, 22]: 0
Nutsedge plant response rating [7, 23]: 0
Corn plant response rating [8, 24]: 0
Corn plant response rating [8, 25]: 0
Plant response rating, Corn [8, 24]: 0
Plant response rating, Corn [8, 26]: 0
Plant response rating, Corn [8, 27]: 0
Corn plant response rating [8, 28]: 0
Corn plant response rating [8, 29]: 0
Morningglory plant response rating [9, 24]: 1
Morningglory plant response rating [9, 25]: 5
Plant response rating, Morningglory [9, 24]: 0
Plant response rating, Morningglory [9, 26]: 0
Plant response rating, Morningglory [9, 27]: 0
Morningglory plant response rating [9, 28]: 1
Morningglory plant response rating [9, 29]: 6
Redroot pigweed plant response rating [10, 16]: 1
Redroot pigweed plant response rating [10, 17]: 6
Plant response rating, Redroot pigweed [10, 18]: 0
Plant response rating, Redroot pigweed [10, 19]: 0
Plant response rating, Redroot pigweed [10, 20]: 0
Redroot pigweed plant response rating [10, 21]: 3
Redroot pigweed plant response rating [10, 22]: 3
Redroot pigweed plant response rating [10, 23]: 10
Bedstraw plant response rating [11, 24]: 2
Plant response rating, Bedstraw [11, 24]: 0
Plant response rating, Bedstraw [11, 26]: 0
Plant response rating, Bedstraw [11, 27]: 0
Bedstraw plant response rating [11, 28]: 3
Velvetleaf plant response rating [12, 16]: 0
Velvetleaf plant response rating [12, 17]: 1
Plant response rating, Velvetleaf [12, 18]: 0
Plant response rating, Velvetleaf [12, 19]: 0
Plant response rating, Velvetleaf [12, 20]: 0
Velvetleaf plant response rating [12, 21]: 0
Velvetleaf plant response rating [12, 22]: 0
Velvetleaf plant response rating [12, 23]: 1
Rape plant response rating [13, 16]: 0
Rape plant response rating [13, 17]: 0
Plant response rating, Rape [13, 18]: 0
Plant response rating, Rape [13, 19]: 0
Plant response rating, Rape [13, 20]: 0
Rape plant response rating [13, 21]: 0
Rape plant response rating [13, 22]: 0
Rape plant response rating [13, 23]: 3
Crabgrass plant response rating [14, 16]: 1
Crabgrass plant response rating [14, 17]: 6
Plant response rating, Crabgrass [14, 18]: 3
Plant response rating, Crabgrass [14, 19]: 5
Plant response rating, Crabgrass [14, 20]: 7
Crabgrass plant response rating [14, 21]: 10
Crabgrass plant response rating [14, 22]: 4
Crabgrass plant response rating [14, 23]: 10
Wild oats plant response rating [15, 16]: 0
Wild oats plant response rating [15, 17]: 0
Plant response rating, Wild oats [15, 19]: 0
Plant response rating, Wild oats [15, 20]: 0
Wild oats plant response rating [15, 21]: 0
Wild oats plant response rating [15, 22]: 0
Wild oats plant response rating [15, 23]: 2
